Results: US20090042726A1, “Novel Herbicides” (SYNGENTA LIMITED, priority 2005, published 2009)

Columns and labels:
[1] = test system: Monocotyledonous and dicotyledonous test plants; experiment: Herbicidal action, application pre-emergence (Example B1); assay type: in vivo; design: key: 10=total damage to plant; 0=no damage to plant; details: 1000 g/ha, evaluated after 9 or 13 days; for AGSTE herbicidal action (damage score 0-10): Agrostis-tenius; for AMARE herbicidal action (damage score 0-10): Amaranthus retroflexus; for DIGSA herbicidal action (damage score 0-10): Digitaria sanguinalis; for POATR herbicidal action (damage score 0-10): Poa trivialis; for SETIT herbicidal action (damage score 0-10): Setaria italica
How it was run: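 Seeds sown in sterilised standard soil were sprayed one day after sowing (pre-emergence) with 1000 mg/l active ingredient in aqueous solution containing 10% DMSO. Plants were kept in a climatic chamber at 24/19° C. day/night after application. Damage was scored 0 (none) to 10 (total) after 9 or 13 days.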

melting point [°C]	Structure (SMILES)	AGSTE herbicidal action (damage score 0-10) [1]	AMARE herbicidal action (damage score 0-10) [1]	DIGSA herbicidal action (damage score 0-10) [1]	POATR herbicidal action (damage score 0-10) [1]	SETIT herbicidal action (damage score 0-10) [1]
140 to 141	Cc1nc(C(Cl)S(=O)(=O)C2=NOC(C)(C)C2F)n(C)n1 (racemic) [8.05, 3-[chloro-(1,3-dimethyl-1H-[1,2,4]triazol-5-yl)-methane-sulfonyl]-4-fluoro-5,5-dimethyl-4,5-dihydro-isoxazole]	10	10	9	8	
182 to 184	Cc1nc(CS(=O)(=O)C2=NOC(C)(C)C2F)n(C)n1 (stereo not drawn) [8.04, 3-[(1,3-dimethyl-1H-[1,2,4]-triazol-5-yl)-methanesulfonyl]-4-fluoro-5,5-dimethyl-4,5-dihydro-isoxazole]					
115 to 116	CC1(C)ON=C(S(=O)(=O)C(F)(F)c2c(F)cccc2F)C1F (stereo not drawn) [Compound No. 1.18, 3-[(2,6-difluoro-phenyl)-difluoro-methanesulfonyl]-4-fluoro-5,5-dimethyl-4,5-dihydro-isoxazole]	10	10	10	8	9
	Cn1nc(C(F)(F)F)c(CS(=O)(=O)C2=NOC(C)(C)C2Br)c1OC(F)F (stereo not drawn) [Compound No. 2.06, 4-Bromo-3-(5-difluoromethoxy-1-methyl-3-trifluoromethyl-1H-pyrazol-4-ylmethylsulfonyl)-5,5-dimethyl-4,5-dihydro-isoxazole]	10	7	8	9	7
50 to 51	Cn1nc(C(F)(F)F)c(CSC2=NOC(C)(C)C2F)c1OCC(F)(F)F (stereo not drawn) [Compound No. 2.07, 4-fluoro-5,5-dimethyl-3-[1-methyl-5-(2,2,2-trifluoro-ethoxy)-3-trifluoromethyl-1H-pyrazol-4-ylmethylsulfanyl]-4,5-dihydro-isoxazole]					
	Cn1nc(C(F)(F)F)c(C[S+]([O-])C2=NOC(C)(C)C2Cl)c1OCC(F)(F)F (stereo not drawn) [Compound No. 2.14, 4-Chloro-5,5-dimethyl-3-[1-methyl-5-(2,2,2-trifluoro-ethoxy)-3-trifluoromethyl-1H-pyrazol-4-ylmethylsulfinyl]-4,5-dihydro-isoxazole]	10	9	9	10	9
111 to 112	Cn1nc(C(F)(F)F)c(CS(=O)(=O)C2=NOC(C)(C)C2Cl)c1OCC(F)(F)F (stereo not drawn) [Compound No. 2.15, 4-chloro-5,5-dimethyl-3-[1-methyl-5-(2,2,2-trifluoro-ethoxy)-3-trifluoromethyl-1H-pyrazol-4-ylmethylsulfonyl]-4,5-dihydro-isoxazole]	10	8	8	10	6
	Cn1nc(C(F)(F)F)c(CSC2=NOC(C)(C)C2F)c1OC(F)F (stereo not drawn) [Compound No. 2.22]	10	9	9	9	9
	Cn1nc(C(F)(F)F)c(CSC2=NOC(C)(C)C2F)c1F (stereo not drawn) [Compound No. 2.54]	10	9	6	10	
	CC1(C)ON=C(SCc2cccnc2Cl)C1F (stereo not drawn) [Compound No. 3.04]	8	2	8	7	
	Cn1nc(C(F)(F)F)cc1CSC1=NOC(C)(C)C1F (stereo not drawn) [Compound No. 6.01]	9	0	8	0	
	Cn1nc(C(F)(F)F)c(Cl)c1CSC1=NOC(C)(C)C1F (stereo not drawn) [Compound No. 6.05]	10	0	5	4	
	Cn1nc(OC(F)F)cc1CSC1=NOC(C)(C)C1F (stereo not drawn) [Compound No. 6.08]	9	3	8	9	
	Cc1nn(C)nc1CSC1=NOC(C)(C)C1F (stereo not drawn) [Compound No. 7.01]	10	0	8	0	8
	CC1(C)ON=C(SCc2nn(CC3CCC3)nc2C(F)(F)F)C1F (stereo not drawn) [Compound No. 7.15]	8	9	9	0	
	COCCn1nc(CSC2=NOC(C)(C)C2F)c(C(F)(F)F)n1 (stereo not drawn) [Compound No. 7.18]	7	8	8	0	
	CCc1nn(C)nc1CSC1=NOC(C)(C)C1F (stereo not drawn) [Compound No. 7.31]	9	0	7	0	
	CCn1ncc(CSC2=NOC(C)(C)C2F)n1 (stereo not drawn) [Compound No. 7.34]	9	6	8	8	
